Data published in ChEMBL document CHEMBL4699540, “Discovery and structure activity relationships of 7-benzyl triazolopyridines as stable, selective, and reversible inhibitors of myeloperoxidase” (Bioorg Med Chem, 2020).

Tests used:
[1] = Binding affinity to human neutrophil MPO delta (1-95) measured for 5 mins by SPR assay
Myeloperoxidase [2] = molecular target: T1, Myeloperoxidase (Homo sapiens, UniProt P05164); assay: Inhibition of recombinant human MPO incubated for 10 mins by amplex red dye based assay
T1 sequence (P05164 whole entry): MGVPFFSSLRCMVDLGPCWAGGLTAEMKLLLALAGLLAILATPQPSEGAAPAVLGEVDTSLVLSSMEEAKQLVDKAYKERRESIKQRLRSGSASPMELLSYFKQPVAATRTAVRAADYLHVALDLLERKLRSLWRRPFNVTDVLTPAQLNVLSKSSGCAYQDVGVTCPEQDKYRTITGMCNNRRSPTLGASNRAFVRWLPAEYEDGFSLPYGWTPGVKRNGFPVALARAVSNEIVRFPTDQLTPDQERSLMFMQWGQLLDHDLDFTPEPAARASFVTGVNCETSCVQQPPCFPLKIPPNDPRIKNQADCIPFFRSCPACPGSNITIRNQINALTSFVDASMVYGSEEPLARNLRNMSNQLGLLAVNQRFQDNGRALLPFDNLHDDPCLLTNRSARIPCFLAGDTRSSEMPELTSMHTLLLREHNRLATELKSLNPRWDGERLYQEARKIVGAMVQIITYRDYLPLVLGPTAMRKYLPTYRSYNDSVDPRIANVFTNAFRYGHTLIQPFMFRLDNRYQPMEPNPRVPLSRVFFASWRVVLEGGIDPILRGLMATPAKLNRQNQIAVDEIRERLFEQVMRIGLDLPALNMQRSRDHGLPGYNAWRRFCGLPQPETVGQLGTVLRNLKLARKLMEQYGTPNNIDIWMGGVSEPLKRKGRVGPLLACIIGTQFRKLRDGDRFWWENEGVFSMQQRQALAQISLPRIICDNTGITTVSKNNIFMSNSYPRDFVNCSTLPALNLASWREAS

[3] = molecular target: T2, Methylated-DNA--protein-cysteine methyltransferase (Homo sapiens, UniProt P16455); assay: Inhibition of human MGMT using 06-benzylguanine as substrate incubated for 30 mins by LC/MS analysis; details: 0.5 h
T2 sequence (P16455 whole entry): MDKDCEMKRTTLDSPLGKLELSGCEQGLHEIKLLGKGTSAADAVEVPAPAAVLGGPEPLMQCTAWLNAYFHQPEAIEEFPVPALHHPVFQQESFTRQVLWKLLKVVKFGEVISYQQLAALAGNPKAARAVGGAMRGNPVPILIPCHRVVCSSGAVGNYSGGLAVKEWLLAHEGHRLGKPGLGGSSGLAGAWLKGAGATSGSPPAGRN

[4] = Metabolic stability in human liver microsomes assessed as compound remaining; format: ADME, Microsome
[5] = Metabolic stability in rat liver microsomes assessed as compound remaining; format: ADME, Microsome
[6] = Metabolic stability in mouse liver microsomes assessed as compound remaining; format: ADME, Microsome
[7] = Permeability of compound at pH 5.5 by PAMPA assay; format: ADME; details: read-out: permeability
[8] = Permeability of compound at pH 7.4 by PAMPA assay; format: ADME; details: read-out: permeability
Cytochrome P450 1A2 = molecular target: T3, Cytochrome P450 1A2 (Homo sapiens, UniProt P05177); assay: Inhibition of CYP1A2 (unknown origin); format: ADME
T3 sequence (P05177 whole entry): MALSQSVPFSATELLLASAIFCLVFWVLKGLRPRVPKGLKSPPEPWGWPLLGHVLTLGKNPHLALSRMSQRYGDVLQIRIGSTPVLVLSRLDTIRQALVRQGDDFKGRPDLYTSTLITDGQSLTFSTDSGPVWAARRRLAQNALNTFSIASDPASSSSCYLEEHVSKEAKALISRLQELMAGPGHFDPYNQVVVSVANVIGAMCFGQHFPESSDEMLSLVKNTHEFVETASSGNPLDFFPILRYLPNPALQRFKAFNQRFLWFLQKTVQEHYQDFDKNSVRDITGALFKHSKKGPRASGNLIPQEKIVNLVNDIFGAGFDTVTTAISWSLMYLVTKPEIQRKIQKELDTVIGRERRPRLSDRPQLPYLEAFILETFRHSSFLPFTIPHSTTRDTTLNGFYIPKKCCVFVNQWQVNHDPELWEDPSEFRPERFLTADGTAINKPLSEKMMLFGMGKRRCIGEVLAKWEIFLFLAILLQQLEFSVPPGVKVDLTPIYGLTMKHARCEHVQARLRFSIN

Cytochrome P450 2B6 = molecular target: T4, Cytochrome P450 2B6 (Homo sapiens, UniProt P20813); assay: Inhibition of CYP2B6 (unknown origin); format: ADME
T4 sequence (P20813 whole entry): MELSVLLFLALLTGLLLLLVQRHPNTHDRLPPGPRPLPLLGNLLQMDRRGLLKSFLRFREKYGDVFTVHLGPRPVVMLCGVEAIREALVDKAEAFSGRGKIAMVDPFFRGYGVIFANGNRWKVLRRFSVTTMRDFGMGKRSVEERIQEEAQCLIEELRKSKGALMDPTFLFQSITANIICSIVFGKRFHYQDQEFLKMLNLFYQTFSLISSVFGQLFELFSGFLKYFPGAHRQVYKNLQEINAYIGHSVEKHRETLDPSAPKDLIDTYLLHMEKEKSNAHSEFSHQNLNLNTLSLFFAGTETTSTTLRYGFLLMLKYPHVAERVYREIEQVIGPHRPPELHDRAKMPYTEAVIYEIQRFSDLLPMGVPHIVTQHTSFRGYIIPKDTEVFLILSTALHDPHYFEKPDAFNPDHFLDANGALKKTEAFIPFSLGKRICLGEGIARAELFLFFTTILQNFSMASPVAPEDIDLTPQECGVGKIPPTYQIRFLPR

Cytochrome P450 2C8 = molecular target: T5, Cytochrome P450 2C8 (Homo sapiens, UniProt P10632); assay: Inhibition of CYP2C8 (unknown origin); format: ADME
T5 sequence (P10632 whole entry): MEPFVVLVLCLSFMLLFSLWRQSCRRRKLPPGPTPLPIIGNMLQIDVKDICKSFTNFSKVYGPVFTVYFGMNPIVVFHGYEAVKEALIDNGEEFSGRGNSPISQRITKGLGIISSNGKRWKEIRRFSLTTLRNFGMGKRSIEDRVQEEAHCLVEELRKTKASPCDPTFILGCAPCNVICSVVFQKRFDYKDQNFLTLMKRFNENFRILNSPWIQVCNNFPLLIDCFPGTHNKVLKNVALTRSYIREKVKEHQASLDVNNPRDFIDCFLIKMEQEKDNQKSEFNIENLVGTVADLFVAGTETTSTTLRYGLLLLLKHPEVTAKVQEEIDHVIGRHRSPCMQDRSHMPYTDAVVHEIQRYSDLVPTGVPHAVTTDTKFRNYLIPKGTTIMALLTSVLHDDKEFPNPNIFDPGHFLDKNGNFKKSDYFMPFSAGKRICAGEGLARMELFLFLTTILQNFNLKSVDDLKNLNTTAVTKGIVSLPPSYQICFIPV

Cytochrome P450 2D6 = Cytochrome P450 2D6 (Homo sapiens, UniProt P10635); assay: Inhibition of CYP2D6 (unknown origin); format: ADME
Cytochrome P450 3A4 = Cytochrome P450 3A4 (Homo sapiens, UniProt P08684); assay: Inhibition of CYP3A4 (unknown origin); format: ADME
[9] = AUCtot in CD-1 mouse at 3 mg/kg, po by LC/MS analysis; format: ADME, organism-based; design: time AUCmax, route oral, dose 3 mg/kg; details: in vivo
[10] = Half life in CD-1 mouse at 3 mg/kg, po by LC/MS analysis; format: ADME, organism-based; details: in vivo
[11] = Dissociation constant, pKa of the compound; format: physicochemical
Neutrophil = details: Homo sapiens, time 5.0 min
Myeloperoxidase [12] = molecular target: T6, Myeloperoxidase (Mus musculus, UniProt P11247); assay: Inhibition of PMA-induced MPO in mouse Neutrophil incubated for 3 mins by luminometry; format: tissue-based
T6 sequence (P11247 whole entry): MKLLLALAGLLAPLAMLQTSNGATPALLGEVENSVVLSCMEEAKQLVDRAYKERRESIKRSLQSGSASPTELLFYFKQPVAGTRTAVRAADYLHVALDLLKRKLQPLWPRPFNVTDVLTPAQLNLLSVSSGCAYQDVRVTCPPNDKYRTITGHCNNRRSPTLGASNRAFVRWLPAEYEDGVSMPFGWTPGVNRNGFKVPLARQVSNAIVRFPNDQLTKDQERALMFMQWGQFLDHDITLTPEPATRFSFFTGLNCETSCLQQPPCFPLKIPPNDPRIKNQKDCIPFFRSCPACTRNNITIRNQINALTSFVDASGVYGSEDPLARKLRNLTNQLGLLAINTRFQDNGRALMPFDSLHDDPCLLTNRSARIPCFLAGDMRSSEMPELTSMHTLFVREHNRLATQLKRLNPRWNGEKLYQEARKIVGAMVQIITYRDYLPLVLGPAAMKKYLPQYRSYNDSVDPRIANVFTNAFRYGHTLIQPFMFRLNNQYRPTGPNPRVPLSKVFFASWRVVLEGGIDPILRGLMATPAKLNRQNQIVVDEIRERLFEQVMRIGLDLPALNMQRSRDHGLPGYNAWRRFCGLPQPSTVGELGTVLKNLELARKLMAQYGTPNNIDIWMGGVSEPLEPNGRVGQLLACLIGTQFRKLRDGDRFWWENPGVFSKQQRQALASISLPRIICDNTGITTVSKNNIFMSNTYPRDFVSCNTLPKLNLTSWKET

Cytochrome P450 2D6, sequence (P10635 whole entry): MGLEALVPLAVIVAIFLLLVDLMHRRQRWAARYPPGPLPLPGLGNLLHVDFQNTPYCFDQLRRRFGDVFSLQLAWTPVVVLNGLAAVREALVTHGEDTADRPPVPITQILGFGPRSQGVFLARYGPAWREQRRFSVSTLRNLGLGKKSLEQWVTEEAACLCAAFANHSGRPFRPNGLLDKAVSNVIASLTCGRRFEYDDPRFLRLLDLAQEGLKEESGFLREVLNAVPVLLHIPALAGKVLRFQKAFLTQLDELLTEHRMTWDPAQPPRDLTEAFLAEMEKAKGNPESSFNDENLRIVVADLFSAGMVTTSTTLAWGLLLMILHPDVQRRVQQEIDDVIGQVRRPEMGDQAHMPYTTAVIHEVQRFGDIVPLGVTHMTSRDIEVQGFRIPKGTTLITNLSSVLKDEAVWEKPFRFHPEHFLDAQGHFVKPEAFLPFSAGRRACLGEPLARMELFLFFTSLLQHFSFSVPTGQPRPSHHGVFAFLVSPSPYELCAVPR
Cytochrome P450 3A4, sequence (P08684 whole entry): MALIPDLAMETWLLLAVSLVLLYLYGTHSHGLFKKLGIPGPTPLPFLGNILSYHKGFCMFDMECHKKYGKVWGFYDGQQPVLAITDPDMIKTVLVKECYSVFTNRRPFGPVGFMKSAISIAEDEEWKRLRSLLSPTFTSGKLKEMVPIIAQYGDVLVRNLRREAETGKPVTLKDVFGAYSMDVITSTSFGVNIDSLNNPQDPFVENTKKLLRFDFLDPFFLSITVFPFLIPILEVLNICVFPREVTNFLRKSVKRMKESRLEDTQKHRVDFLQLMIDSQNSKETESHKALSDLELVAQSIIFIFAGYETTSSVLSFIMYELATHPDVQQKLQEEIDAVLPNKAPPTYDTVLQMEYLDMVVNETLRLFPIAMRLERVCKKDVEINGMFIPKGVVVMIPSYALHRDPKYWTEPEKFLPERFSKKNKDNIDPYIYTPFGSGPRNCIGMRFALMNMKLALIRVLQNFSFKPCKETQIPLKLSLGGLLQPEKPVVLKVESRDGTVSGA

Row | Compound | Kd [1] | IC50 (Myeloperoxidase [2]) | inhibition (INH) [3] | Stabilty [4] | Stabilty [5] | Stabilty [6] | Papp [7] | Papp [8] | IC50 (Cytochrome P450 1A2) | IC50 (Cytochrome P450 2B6) | IC50 (Cytochrome P450 2C8) | IC50 (Cytochrome P450 2D6) | IC50 (Cytochrome P450 3A4) | AUC [9] | half-life [10] | pKa [11] | Ka (Neutrophil) | Kdiss (Neutrophil) | IC50 (Myeloperoxidase [12])
1 | Nc1nc(OCc2ccccc2)c2[nH]nnc2n1 | 0.547 µM | 0.103 µM | Active | 93% | 95% | 80% | 42 ×10⁻⁶ cm/s | 16.7 ×10⁻⁶ cm/s | > 10 µM | > 10 µM | > 10 µM | > 10 µM | > 10 µM | 22.2 µM·h | 2.4 h | 6.6 | 1.3 10^3/M.s | 0.72 10^-3/s | 
2 | O=c1[nH]c(=S)n(C[C@H]2CCCO2)c2nc[nH]c12 |  |  |  |  |  |  |  |  |  |  |  |  |  |  |  |  |  |  | 32.5 µM
